Laboratory results taken from PubChem BioAssay AID248 (DTP/NCI, 2004).
Where “and” joins values, the source holds several entries; their conditions need not be identical. Equal entries are not always repeated. Toxic doses and inconclusive results are not listed. No stated cut-off is given here; in the data, active means T/C of 150% or more; inactive means T/C below 125%.

System: L1210 leukemia ip in BDF1 mice, survival T/C
Experiment: NCI In Vivo Anticancer Drug Screen. Data for tumor model L1210 Leukemia (intraperitoneal) in B6D2F1 (BDF1) mice
Details: endpoint: mean survival time, higher = longer survival
Procedure, shortened: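 Tumor was transplanted into mice, which were then dosed with test compound or vehicle alone. Survival was recorded for each group, and the treated figure was expressed relative to the control figure.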

[1] = dose: 100.0 mg/kg/injection, schedule: Q01DX001 (ip), vehicle: other
[2] = dose: 400.0 mg/kg/injection, schedule: Q01DX001 (ip), vehicle: other
[3] = dose: 100.0 mg/kg/injection, schedule: Q04DX003 (ip), vehicle: saline
[4] = dose: 100.0 mg/kg/injection, schedule: Q04DX003 (ip), vehicle: Klucel (hydroxypropylcellulose) (HPC)
[5] = dose: 200.0 mg/kg/injection, schedule: Q04DX003 (ip), vehicle: Klucel (hydroxypropylcellulose) (HPC)
[6] = dose: 400.0 mg/kg/injection, schedule: Q04DX003 (ip), vehicle: Klucel (hydroxypropylcellulose) (HPC)
[7] = dose: 100.0 mg/kg/injection, schedule: Q01DX001 (ip), vehicle: saline
[8] = dose: 200.0 mg/kg/injection, schedule: Q01DX001 (ip), vehicle: saline
[9] = dose: 100.0 mg/kg/injection, schedule: Q01DX009 (ip), vehicle: Klucel (hydroxypropylcellulose) (HPC)
[10] = dose: 200.0 mg/kg/injection, schedule: Q01DX009 (ip), vehicle: Klucel (hydroxypropylcellulose) (HPC)
[11] = dose: 50.0 mg/kg/injection, schedule: Q01DX009 (ip), vehicle: Klucel (hydroxypropylcellulose) (HPC)

Measured: T/C

C/C=C/C(O)(C(=O)OCC)C1CCCCC1 (configuration not stated)
inactive: [1] 107 % of control | dose: 200.0 mg/kg/injection, schedule: Q01DX001 (ip), vehicle: other 98 % of control | [2] 102 % of control

CC(C)CC(C)NCCOC(=O)c1ccc(N)cc1 (configuration not stated)
inactive: dose: 9.38 mg/kg/injection, schedule: Q01DX001 (ip), vehicle: other 104 % of control | dose: 18.75 mg/kg/injection, schedule: Q01DX001 (ip), vehicle: other 96 % of control | dose: 37.5 mg/kg/injection, schedule: Q01DX001 (ip), vehicle: other 106 % of control | dose: 75.0 mg/kg/injection, schedule: Q01DX001 (ip), vehicle: carboxymethylcellulose (CMC) 96 % of control

CCCCCNC(C)C(=O)c1ccccc1 (configuration not stated)
inactive: dose: 12.5 mg/kg/injection, schedule: Q04DX003 (ip), vehicle: saline 87 % of control | dose: 25.0 mg/kg/injection, schedule: Q01DX009 (ip), vehicle: saline 92 % of control | dose: 25.0 mg/kg/injection, schedule: Q04DX003 (ip), vehicle: saline 94 % of control | dose: 50.0 mg/kg/injection, schedule: Q01DX009 (ip), vehicle: saline 100 % of control | dose: 50.0 mg/kg/injection, schedule: Q04DX003 (ip), vehicle: saline 94 % of control | [3] 97 % of control

Nc1nc(N)c(C=O)c(Nc2ccc(Br)cc2)n1
inactive: dose: 50.0 mg/kg/injection, schedule: Q01DX001 (ip), vehicle: alcohol 110 % of control | dose: 100.0 mg/kg/injection, schedule: Q01DX001 (ip), vehicle: alcohol 96 % of control | dose: 200.0 mg/kg/injection, schedule: Q01DX001 (ip), vehicle: alcohol 94 % of control | dose: 400.0 mg/kg/injection, schedule: Q01DX001 (ip), vehicle: alcohol 90 % of control

O=C1CC2OCC=C3C[N+]4(SS(=O)(=O)[O-])CCC56c7ccccc7N1C5C2C3CC64 (configuration not stated)
inactive: dose: 0.15 mg/kg/injection, schedule: Q01DX009 (ip), vehicle: saline 93 % of control | dose: 0.31 mg/kg/injection, schedule: Q01DX009 (ip), vehicle: saline 95 % of control | dose: 0.31 mg/kg/injection, schedule: Q04DX003 (ip), vehicle: acetone 108 % of control | dose: 0.62 mg/kg/injection, schedule: Q01DX009 (ip), vehicle: saline 93 % of control | dose: 0.62 mg/kg/injection, schedule: Q04DX003 (ip), vehicle: acetone 108 % of control | dose: 0.92 mg/kg/injection, schedule: Q01DX009 (ip), vehicle: saline 92 % of control | dose: 1.25 mg/kg/injection, schedule: Q01DX001 (ip), vehicle: saline 98 % of control | dose: 1.25 mg/kg/injection, schedule: Q04DX003 (ip), vehicle: acetone 88 % of control | dose: 1.4 mg/kg/injection, schedule: Q01DX009 (ip), vehicle: saline 92 % of control

CC(C)(C)NC(=O)Oc1ccccc1C(=O)Nc1ccccc1
inactive: dose: 50.0 mg/kg/injection, schedule: Q01DX009 (ip), vehicle: saline with Tween-80 97 % of control and 103 % of control | dose: 100.0 mg/kg/injection, schedule: Q04DX002 (ip), vehicle: saline with Tween-80 101 % of control and 103 % of control | dose: 200.0 mg/kg/injection, schedule: Q04DX002 (ip), vehicle: saline with Tween-80 95 % of control and 98 % of control | dose: 400.0 mg/kg/injection, schedule: Q04DX002 (ip), vehicle: saline with Tween-80 92 % of control

CCCCCCCCCCCCCCS
inactive: dose: 200.0 mg/kg/injection, schedule: Q01DX Z (ip), vehicle: methylcellulose (MC) 116 % of control | dose: 225.0 mg/kg/injection, schedule: Q01DX Z (ip), vehicle: methylcellulose (MC) 108 % of control | dose: 450.0 mg/kg/injection, schedule: Q01DX Z (ip), vehicle: methylcellulose (MC) 104 % of control | dose: 675.0 mg/kg/injection, schedule: Q01DX Z (ip), vehicle: methylcellulose (MC) 103 % of control

CCOC(=O)NC(C)c1cccc2ccccc12 (configuration not stated)
inactive: [4] 93 % of control | [5] 97 % of control | [6] 90 % of control

NNc1ccccc1
inactive: [7] 105 % of control | [8] 111 % of control

N#Cc1c(Cl)nsc1Cl
inactive: [9] 97 % of control | [10] 102 % of control

COC(=O)c1[nH]cnc1/N=N/N(C)C
inactive: dose: 6.75 mg/kg/injection, schedule: Q01DX009 (ip), vehicle: saline 119 % of control | dose: 9.3 mg/kg/injection, schedule: Q01DX015 (ip), vehicle: saline 113 % of control | dose: 11.25 mg/kg/injection, schedule: Q01DX Z (ip), vehicle: saline 124 % of control | dose: 22.25 mg/kg/injection, schedule: Q04DX003 (ip), vehicle: saline 115 % of control | dose: 44.5 mg/kg/injection, schedule: Q04DX003 (ip), vehicle: saline 120 % of control | dose: 57.5 mg/kg/injection, schedule: Q01DX001 (ip), vehicle: saline 114 % of control | dose: 62.0 mg/kg/injection, schedule: Q01DX Z (ip), vehicle: saline 121 % of control | dose: 88.0 mg/kg/injection, schedule: Q01DX001 (ip), vehicle: saline 112 % of control | dose: 88.8 mg/kg/injection, schedule: Q01DX001 (ip), vehicle: saline 124 % of control | dose: 90.0 mg/kg/injection, schedule: Q01DX015 (ip), vehicle: saline 114 % of control | [7] 124 % of control | dose: 115.0 mg/kg/injection, schedule: Q01DX001 (ip), vehicle: saline 114 % of control | dose: 133.0 mg/kg/injection, schedule: Q01DX001 (ip), vehicle: saline 115 % of control | [8] 121 % of control | dose: 231.0 mg/kg/injection, schedule: Q01DX001 (ip), vehicle: saline 123 % of control
active: dose: 27.0 mg/kg/injection, schedule: Q01DX009 (ip), vehicle: saline 150 % of control | dose: 31.0 mg/kg/injection, schedule: Q01DX Z (ip), vehicle: saline 171 % of control | dose: 46.0 mg/kg/injection, schedule: Q01DX Z (ip), vehicle: saline 160 % of control | dose: 54.0 mg/kg/injection, schedule: Q01DX015 (ip), vehicle: saline 164 % of control

O=C1/C(=C/c2ccc3c(c2)OCO3)C2CCC(N2)/C1=C\c1ccc2c(c1)OCO2
inactive: [1] 89 % of control | [2] 101 % of control

O=C1C2C3CCC(O3)C2C(=O)N1CC#CCCl (configuration not stated)
inactive: dose: 6.25 mg/kg/injection, schedule: Q04DX002 (ip), vehicle: saline with Tween-80 100 % of control | dose: 12.5 mg/kg/injection, schedule: Q04DX002 (ip), vehicle: saline with Tween-80 106 % of control

Cc1nc(N)[nH]c(=O)c1CCCNS(=O)(=O)c1ccc(CNC(=O)CBr)cc1
inactive: dose: 37.5 mg/kg/injection, schedule: Q01DX001 (ip), vehicle: Klucel (hydroxypropylcellulose) (HPC) 107 % of control | dose: 75.0 mg/kg/injection, schedule: Q01DX001 (ip), vehicle: Klucel (hydroxypropylcellulose) (HPC) 94 % of control | dose: 150.0 mg/kg/injection, schedule: Q01DX001 (ip), vehicle: Klucel (hydroxypropylcellulose) (HPC) 96 % of control

CC(=O)Nc1c(Br)cc2c(c1Br)Cc1cc(Br)ccc1-2
inactive: dose: 100.0 mg/kg/injection, schedule: Q01DX001 (ip), vehicle: carboxymethylcellulose (CMC) 111 % of control | dose: 200.0 mg/kg/injection, schedule: Q01DX001 (ip), vehicle: carboxymethylcellulose (CMC) 97 % of control | dose: 400.0 mg/kg/injection, schedule: Q01DX001 (ip), vehicle: carboxymethylcellulose (CMC) 108 % of control

O=C(O)CCCl
inactive: dose: 50.0 mg/kg/injection, schedule: Q01DX001 (ip), vehicle: saline 90 % of control | [11] 98 % of control | [9] 92 % of control | [3] 104 % of control | [8] 89 % of control | [10] 92 % of control | dose: 200.0 mg/kg/injection, schedule: Q04DX003 (ip), vehicle: saline 98 % of control

COC(=O)c1cc(=O)c2c(=O)[nH]c(=O)n(C)c2[nH]1
inactive: [4] 94 % of control | [5] 101 % of control | [6] 95 % of control

CC(=O)/C=C\c1ccc([N+](=O)[O-])o1
inactive: dose: 100.0 mg/kg/injection, schedule: Q04DX002 (ip), vehicle: Klucel (hydroxypropylcellulose) (HPC) 115 % of control | dose: 200.0 mg/kg/injection, schedule: Q04DX002 (ip), vehicle: Klucel (hydroxypropylcellulose) (HPC) 89 % of control

O=C(O)c1cc2ccccc2s1
inactive: [11] 98 % of control | [9] 101 % of control | [4] 102 % of control | [10] 95 % of control | [5] 94 % of control
